In patent US11357783B2 (CAREGEN CO., LTD., priority 2016, dated 2022):

How the values were obtained:
[1] = Solubility test in distilled water; format: physicochemical; settings: 10 mg/ml
[2] = tested on: 5α reductase; assay: Effect on 5α reductase activity: testosterone reacted with liver cell extracts, testosterone and DHT by HPLC; format: biochemical; settings: 1 hour at 37° C.
Protocol: The reactant of putting the liver cell extracts in testosterone and reacting it for 1 hour at 37° C. is the control. After the reaction is completed, the amount of testosterone and DHT were confirmed through HPLC. The HPLC analysis was carried out under the following conditions. • C18 column • UV 240 nm • flow rate: 1 mi/minute • mobile phase: A: 0.1% Formic acid in water • B: 0.1% Formic acid in acetonitrile • gradient: 0 min B 5%˜30 min B 80%

CC(C)(C)NC(=O)[C@H]1CC[C@H]2[C@@H]3CC[C@H]4NC(=O)C=C[C@]4(C)[C@H]3CC[C@]12C [finasteride, N-(1,1-dimethylethyl)-3-oxo-(5α,17β)-4-azaandrost-1-ene-17-carboxamide]
solubility in water [1]: hardly dissolved in water | concentration of DHT compared with the control [2]: decreased | concentration of testosterone compared with the control [2]: increased
